Laboratory results taken from patent US9809537B2, “Glycosidase inhibitors and uses thereof” (Alectos Therapeutics Inc., priority 2012, dated 2017).

Experiment: Apparent permeability (Papp), bi-directional transport
Type: in vitro ADME
Conditions: pig, LLC-PK1, t=3 h, average of A to B and B to A, read-out: Papp LLC-PK1 cells
Procedure: Assay for Determination of Apparent Permeability (Papp)
Bi-directional transport is evaluated in LLC-PK1 cells in order to determine apparent permeability (Papp). LLC-PK1 cells can form a tight monolayer and therefore can be used to assess vectorial transport of compounds from basolateral to apical (B→A) and from apical to basolateral (A→B).
To determine Papp, LLC-PK1 cells are cultured in 96-well transwell culture plates (Millipore). Solutions containing the test compounds (1 μM) are prepared in Hank's Balanced Salt Solution with 10 mM HEPES. Substrate solution (150 μL) is added to either the apical (A) or the basolateral (B) compartment of the culture plate, and buffer (150 μL) is added to the compartment opposite to that containing the compound. At t=3 h, 50 μL samples are removed from both sides of monolayers dosed with test compound and placed in 96 well plates, scintillant (200 μL) or internal standard (100 μL labetolol 1 μM) is added to the samples and concentration is determined by liquid scintillation counting in a MicroBeta Wallac Trilux scintillation counter (Perkin Elmer Life Sciences, Boston, Mass.) or by LCMS/MS (Applied Biosystems SCIEX API 5000 triple quadruple mass spectrometer). [^3H]Verapamil (1 μM) is used as the positive control. The experiment is performed in triplicate.
The apparent permeability, Papp, is calculated by the following formula for samples taken at t=3 h:
[formula] Where: Volume of Receptor Chamber is 0.15 mL; Area of membrane is 0.11 cm^2; the Initial Concentration is the sum of the concentration measured in the donor plus concentration measured in receiver compartments at t=3 h; A in Concentration is concentration in the receiver compartment at 3 h; and A in Time is the incubation time (3×60×60=10800 s). Papp is expressed as 10^−6 cm/s. The Papp (LLC-PK1 cells) are the average of the Papp for transport from A to B and Papp for transport from B to A at t=3 h: […]

Papp at 3 h, 1 μM: 5 ×10⁻⁶ cm/s
SMILES: CC(=O)NC[C@@H]1[C@@H](O)[C@H](O)[C@@H](CO)N1CCCc1ccc(-c2ccccc2)cc1 [Example 3, N-(((2R,3R,4R,5R)-1-(3-([1,1′-biphenyl]-4-yl)propyl)-3,4-dihydroxy-5-(hydroxymethyl)pyrrolidin-2-yl)methyl)acetamide]
